From ChEMBL document CHEMBL1201862, “PubChem BioAssay data set” (2004)
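Assay format: 96-well plates, 48-hour exposure. GI50 marks 50% less growth.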 Active and inactive are the calls of the source. No stated cut-off is given here; in the data, active = GI50 up to about 1.1 µM and inactive = higher.

Tests used:
Test in all cases: growth of human tumour cells (NCI), 48 h
786-0 = system: 786-0
A498 = system: A498
A549 = system: A549
ACHN = system: ACHN
COLO 205 = system: COLO 205
DU-145 = system: DU-145
EKVX = system: EKVX
HCT-116 = system: HCT-116
HCT-15 = system: HCT-15
HOP-62 = system: HOP-62
HOP-92 = system: HOP-92
HT-29 = system: HT-29
Hs-578T = system: Hs-578T
IGROV-1 = system: IGROV-1
K562 = system: K562
KM12 = system: KM12
LOX IMVI = system: LOX IMVI
M14 = system: M14
MCF7 = system: MCF7
MDA-MB-231 = system: MDA-MB-231
MDA-MB-435 = system: MDA-MB-435
MDA-N = system: MDA-N
MOLT-4 = system: MOLT-4
Malme-3M = system: Malme-3M
NCI-H226 = system: NCI-H226
NCI-H23 = system: NCI-H23
NCI-H522 = system: NCI-H522
NCI/ADR-RES = system: NCI/ADR-RES
OVCAR-3 = system: OVCAR-3
OVCAR-4 = system: OVCAR-4
OVCAR-5 = system: OVCAR-5
OVCAR-8 = system: OVCAR-8
PC-3 = system: PC-3
RPMI-8226 = system: RPMI-8226
SF-268 = system: SF-268
SF-295 = system: SF-295
SK-MEL-28 = system: SK-MEL-28
SK-MEL-2 = system: SK-MEL-2
SK-MEL-5 = system: SK-MEL-5
SK-OV-3 = system: SK-OV-3
SN12C = system: SN12C
SNB-19 = system: SNB-19
SNB-75 = system: SNB-75
SR = system: SR
SW-620 = system: SW-620
TK-10 = system: TK-10
U-251 = system: U-251
UACC-62 = system: UACC-62
UO-31 = system: UO-31
BT-549 = system: BT-549
CAKI-1 = system: CAKI-1
CCRF-CEM = system: CCRF-CEM
HCC 2998 = system: HCC 2998
HL-60 = system: HL-60
NCI-H460 = system: NCI-H460
RXF 393 = system: RXF 393
SF-539 = system: SF-539
T47D = system: T47D
UACC-257 = system: UACC-257

For `COc1ccc(/C=C2\N=C(SC)N(CN3CCCCC3)C2=O)cc1`, the GI50 (786-0) was > 100 µM (inactive), the GI50 (A498) was 42.4 µM (inactive) and the GI50 (A549) was > 100 µM (inactive). The GI50 (ACHN) was > 100 µM (inactive), the GI50 (COLO 205) was > 100 µM (inactive) and the GI50 (DU-145) was > 100 µM (inactive). For the same molecule, the GI50 (EKVX) was > 100 µM (inactive), the GI50 (HCT-116) was > 100 µM (inactive) and the GI50 (HCT-15) was > 100 µM. The GI50 (HOP-62) was 58.7 µM (inactive), the GI50 (HOP-92) was 0.347 µM (active) and the GI50 (HT-29) was > 100 µM (inactive). For the same molecule, the GI50 (Hs-578T) was > 100 µM (inactive), the GI50 (IGROV-1) was > 100 µM (inactive) and the GI50 (K562) was > 100 µM (inactive). The GI50 (KM12) was > 100 µM (inactive), the GI50 (LOX IMVI) was > 100 µM (inactive) and the GI50 (M14) was > 100 µM (inactive). For the same molecule, the GI50 (MCF7) was > 100 µM (inactive), the GI50 (MDA-MB-231) was > 100 µM (inactive) and the GI50 (MDA-MB-435) was > 100 µM (inactive). The GI50 (MDA-N) was > 100 µM (inactive), the GI50 (MOLT-4) was > 100 µM (inactive) and the GI50 (Malme-3M) was > 100 µM (inactive). For the same molecule, the GI50 (NCI-H226) was > 100 µM (inactive), the GI50 (NCI-H23) was > 100 µM (inactive) and the GI50 (NCI-H522) was > 100 µM (inactive). For the same molecule, the GI50 (NCI/ADR-RES) was > 100 µM (inactive), the GI50 (OVCAR-3) was > 100 µM (inactive) and the GI50 (OVCAR-4) was > 100 µM (inactive). The GI50 (OVCAR-5) was > 100 µM (inactive), the GI50 (OVCAR-8) was > 100 µM (inactive) and the GI50 (PC-3) was > 100 µM (inactive). The GI50 (RPMI-8226) was > 100 µM (inactive), the GI50 (SF-268) was > 100 µM (inactive) and the GI50 (SF-295) was > 100 µM (inactive). For the same molecule, the GI50 (SK-MEL-28) was > 100 µM (inactive), the GI50 (SK-MEL-2) was > 100 µM (inactive) and the GI50 (SK-MEL-5) was > 100 µM (inactive). The GI50 (SK-OV-3) was > 100 µM (inactive), the GI50 (SN12C) was > 100 µM (inactive) and the GI50 (SNB-19) was > 100 µM (inactive). The GI50 (SNB-75) was > 100 µM (inactive), the GI50 (SR) was > 100 µM (inactive) and the GI50 (SW-620) was > 100 µM (inactive). The GI50 (TK-10) was > 100 µM (inactive), the GI50 (U-251) was > 100 µM (inactive) and the GI50 (UACC-62) was > 100 µM (inactive). The GI50 (UO-31) was > 100 µM (inactive).

`Cc1c(O)c(OC2OC(CO)C(O)C(O)C2O)cc2c1CC[C@@H]1C2(C)C(=O)C[C@]2(C)[C@@H]([C@@](C)(O)C(O)CCC(C)(C)O)[C@H](O)C[C@@]12C` (some centres not stated) was tested, and the GI50 (786-0) was > 100 µM (inactive), the GI50 (A498) was > 100 µM (inactive) and the GI50 (A549) was > 100 µM (inactive). The GI50 (ACHN) was > 100 µM (inactive), the GI50 (BT-549) was > 100 µM (inactive) and the GI50 (CAKI-1) was > 100 µM (inactive). For the same molecule, the GI50 (CCRF-CEM) was > 100 µM (inactive), the GI50 (COLO 205) was > 100 µM (inactive) and the GI50 (DU-145) was > 100 µM (inactive). For the same molecule, the GI50 (EKVX) was > 100 µM (inactive), the GI50 (HCC 2998) was > 100 µM (inactive) and the GI50 (HCT-116) was > 100 µM (inactive). For the same molecule, the GI50 (HCT-15) was > 100 µM, the GI50 (HL-60) was > 100 µM (inactive) and the GI50 (HOP-62) was > 100 µM (inactive). The GI50 (HOP-92) was > 100 µM (inactive), the GI50 (HT-29) was > 100 µM (inactive) and the GI50 (IGROV-1) was > 100 µM (inactive). The GI50 (K562) was > 100 µM (inactive), the GI50 (KM12) was > 100 µM (inactive) and the GI50 (LOX IMVI) was > 100 µM (inactive). The GI50 (M14) was > 100 µM (inactive), the GI50 (MCF7) was > 100 µM (inactive) and the GI50 (MDA-MB-231) was > 100 µM (inactive). For the same molecule, the GI50 (MDA-MB-435) was > 100 µM (inactive), the GI50 (MDA-N) was > 100 µM (inactive) and the GI50 (MOLT-4) was > 100 µM (inactive). The GI50 (Malme-3M) was > 100 µM (inactive), the GI50 (NCI-H226) was > 100 µM (inactive) and the GI50 (NCI-H23) was > 100 µM (inactive). The GI50 (NCI-H460) was > 100 µM (inactive), the GI50 (NCI-H522) was > 100 µM (inactive) and the GI50 (NCI/ADR-RES) was > 100 µM (inactive). The GI50 (OVCAR-3) was > 100 µM (inactive), the GI50 (OVCAR-4) was > 100 µM (inactive) and the GI50 (OVCAR-5) was > 100 µM (inactive). The GI50 (OVCAR-8) was > 100 µM (inactive), the GI50 (PC-3) was > 100 µM (inactive) and the GI50 (RXF 393) was > 100 µM (inactive). The GI50 (SF-268) was > 100 µM (inactive), the GI50 (SF-295) was > 100 µM (inactive) and the GI50 (SF-539) was > 100 µM (inactive). For the same molecule, the GI50 (SK-MEL-28) was > 100 µM (inactive), the GI50 (SK-MEL-2) was > 100 µM (inactive) and the GI50 (SK-MEL-5) was > 100 µM (inactive). The GI50 (SK-OV-3) was > 100 µM (inactive), the GI50 (SN12C) was > 100 µM (inactive) and the GI50 (SNB-19) was > 100 µM (inactive). The GI50 (SNB-75) was > 100 µM (inactive), the GI50 (SR) was > 100 µM (inactive) and the GI50 (SW-620) was > 100 µM (inactive). For the same molecule, the GI50 (T47D) was > 100 µM (inactive), the GI50 (TK-10) was > 100 µM (inactive) and the GI50 (U-251) was > 100 µM (inactive). The GI50 (UACC-257) was > 100 µM (inactive), the GI50 (UACC-62) was > 100 µM (inactive) and the GI50 (UO-31) was > 100 µM (inactive).

With `CC(=O)OCC(OC(C)=O)C(OC(C)=O)C(/C=N/N(C(C)=O)S(=O)(=O)c1ccc(/C=C2\NC(=O)NC2=O)cc1)OC(C)=O` (configuration not stated) the GI50 (786-0) was > 100 µM (inactive), the GI50 (A498) was > 100 µM (inactive) and the GI50 (A549) was > 100 µM (inactive). For the same molecule, the GI50 (ACHN) was > 100 µM (inactive), the GI50 (CCRF-CEM) was 50.6 µM (inactive) and the GI50 (COLO 205) was > 100 µM (inactive). The GI50 (DU-145) was > 100 µM (inactive), the GI50 (EKVX) was > 100 µM (inactive) and the GI50 (HCT-116) was > 100 µM (inactive). For the same molecule, the GI50 (HCT-15) was > 100 µM, the GI50 (Hs-578T) was > 100 µM (inactive) and the GI50 (IGROV-1) was > 100 µM (inactive). The GI50 (M14) was > 100 µM (inactive), the GI50 (MDA-MB-231) was > 100 µM (inactive) and the GI50 (MDA-MB-435) was > 100 µM (inactive). For the same molecule, the GI50 (MDA-N) was > 100 µM (inactive), the GI50 (MOLT-4) was > 100 µM (inactive) and the GI50 (NCI-H23) was > 100 µM (inactive). The GI50 (NCI-H460) was > 100 µM (inactive), the GI50 (NCI/ADR-RES) was > 100 µM (inactive) and the GI50 (OVCAR-3) was > 100 µM (inactive). The GI50 (OVCAR-4) was > 100 µM (inactive), the GI50 (OVCAR-5) was > 100 µM (inactive) and the GI50 (PC-3) was > 100 µM (inactive). For the same molecule, the GI50 (SF-268) was > 100 µM (inactive), the GI50 (SK-MEL-5) was > 100 µM (inactive) and the GI50 (SK-OV-3) was > 100 µM (inactive). For the same molecule, the GI50 (SNB-19) was > 100 µM (inactive), the GI50 (SR) was > 100 µM (inactive) and the GI50 (SW-620) was > 100 µM (inactive). The GI50 (T47D) was > 100 µM (inactive), the GI50 (TK-10) was > 100 µM (inactive) and the GI50 (U-251) was > 100 µM (inactive). The GI50 (UACC-257) was > 100 µM (inactive), the GI50 (UACC-62) was > 100 µM (inactive) and the GI50 (UO-31) was > 100 µM (inactive).
